“Also recorded” adds a separate entry of the source.
Target: T1, HDAC6 (Homo sapiens, UniProt Q9UBN7)
T1 construct: endogenous in cells; host or cells: MM1S (ATCC CRL-2974)
T1 sequence (Q9UBN7 1-1215): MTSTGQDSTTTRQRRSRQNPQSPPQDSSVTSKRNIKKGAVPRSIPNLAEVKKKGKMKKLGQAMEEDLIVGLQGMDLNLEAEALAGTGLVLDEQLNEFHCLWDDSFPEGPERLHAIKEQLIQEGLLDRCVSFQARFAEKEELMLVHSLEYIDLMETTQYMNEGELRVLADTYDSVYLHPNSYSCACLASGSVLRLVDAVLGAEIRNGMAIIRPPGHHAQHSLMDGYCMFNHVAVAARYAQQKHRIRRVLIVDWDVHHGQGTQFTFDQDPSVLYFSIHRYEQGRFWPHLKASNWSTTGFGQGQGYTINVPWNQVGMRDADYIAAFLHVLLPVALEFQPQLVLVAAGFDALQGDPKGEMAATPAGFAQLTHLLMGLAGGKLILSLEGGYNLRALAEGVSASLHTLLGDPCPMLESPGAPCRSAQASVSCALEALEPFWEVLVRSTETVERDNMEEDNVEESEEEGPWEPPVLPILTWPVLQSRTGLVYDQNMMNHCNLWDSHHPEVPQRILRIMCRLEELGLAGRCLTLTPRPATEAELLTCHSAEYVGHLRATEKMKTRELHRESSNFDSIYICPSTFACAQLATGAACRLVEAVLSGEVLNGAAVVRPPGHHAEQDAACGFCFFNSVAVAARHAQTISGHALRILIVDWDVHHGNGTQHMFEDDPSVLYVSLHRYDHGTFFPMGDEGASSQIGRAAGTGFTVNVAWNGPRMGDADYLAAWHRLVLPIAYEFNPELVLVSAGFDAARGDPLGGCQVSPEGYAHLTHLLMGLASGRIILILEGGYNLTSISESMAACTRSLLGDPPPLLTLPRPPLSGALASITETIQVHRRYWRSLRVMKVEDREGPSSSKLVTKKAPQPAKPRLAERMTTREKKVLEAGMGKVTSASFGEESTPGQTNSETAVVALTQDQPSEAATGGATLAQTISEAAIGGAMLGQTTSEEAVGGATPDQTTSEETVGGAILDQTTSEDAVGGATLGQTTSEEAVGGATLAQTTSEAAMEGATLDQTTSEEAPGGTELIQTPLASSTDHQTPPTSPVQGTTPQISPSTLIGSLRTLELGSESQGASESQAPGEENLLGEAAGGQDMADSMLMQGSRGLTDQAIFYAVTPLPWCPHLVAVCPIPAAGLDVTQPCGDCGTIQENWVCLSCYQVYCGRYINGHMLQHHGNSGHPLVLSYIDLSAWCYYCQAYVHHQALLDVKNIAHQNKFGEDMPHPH
Assay: Western blot of HDAC6 in MM1S cells
Assay type: cell-based
Conditions: for HDAC6 degradation activity of negative controls by western blot: data not shown
Experimental: FIGS. 10A and 10B are western blot analysis of MM1S cells treated with selected candidates from C4-lined series (FIG. 10A) and C5-lined series (FIG. 10B) for 6 h.
FIGS. 12A, 12B, and 12C are a series of western blots showing that degrader 12d selectively promotes HDAC6 degradation in MM1S cells.
FIGS. 13A and 13B are western blot analysis of MM1S cells with pre-treatment of E3 ligase ligand pomalidomide, HDAC6 inhibitor Next-A or NAE inhibitor MLN 4924 (FIG. 13A) or pre-treatment of proteasome inhibitor MG132 or Bortezomib (FIG. 13B) or vehicle (DMSO) for 1 h and it is followed by the treatment of 100 nM 2d or vehicle (DMSO) for 6 h.
FIG. 16 is a western blot of selected candidate compounds having longer linkers. MM1S cells were treated with 100 nM degraders for 6 hours and analyzed by western blot.
See FIG. 10A and FIG. 10B to confirm the ELISA results. Class II HDAC4 was selected for comparison. For selected compounds from C4- or C5-linked series, all of them presented maximal effects at 100 nM and degraded significant amount of HDAC6 at 10 nM. […] The results from Western blot are consistent with the screening results by ELISA.
To evaluate the activity and selectivity of 12d, a full dose response experiment was performed with compound concentrations ranging from 0.3 nM to 10 μM in MM1S cells (FIG. 12A) for several HDACs, IKZFs, and Ac-tubulin. […] Degrader 12d reduced HDAC6 protein content at as low as 3 nM and achieved maximal effects around 30 nM. […] See Douglass et al. 2013, supra. The degradation of IKZFs started from 30 nM and was dose-dependent. It is interesting to see the more efficient degradation of HDAC6, which requires the formation of ternary complex, than that of IKZFs, which only requires the formation of binary complex. In addition to the distinct mechanism, the different turnover rates of HDAC6 and IKZFs may also contribute to the observed results. The acetylated tubulin level was also dose-dependent. At higher concentrations (3 μM and 10 μM), tubulin acetylation was not […] in response to recovered HDAC6 expression by “hook effect”. The elevated tubulin acetylation at higher concentrations was likely due to the combination of HDAC6 degradation and HDAC6 inhibition.
To probe the efficiency of 12d, MM1S was treated with 100 nM 12d and the change of HDAC6 protein level was monitored by time. The HDAC6 degradation started around 1 h and reached maximal degradation effect at 4 h. The degradation of IKZFs was only observed after 4 h. Meanwhile, HDAC1 was not affected and the acetylation of tubulin was accumulated by time. To study the re-synthesis rate of HDAC6 after degradation, “wash-out” experiments were performed (data not shown). Cells were treated with 100 nM 12d for 6 h and then washed with PBS to remove remaining degraders. HDAC6 expression was monitored for 48 h. […] Selected degraders were also tested in other cell lines and they are effective among all tested cancer cell lines.
To support the involvement of ubiquitination-proteasome system for the decrease of HDAC6 protein level, the degrader was co-treated with binding competitors or pathway blockers. […] Moreover, it also confirmed the role of the pomalidomide moiety in modulating IKZFs. […] Additionally, proteasome inhibitor MG132 and Bortezomib were used to block the down-stream proteasome degradation. […] Acetylated tubulin level was suppressed as well. This confirms that HDAC6 degradation is responsible for the acetylation of its substrates rather than inhibition by the “warhead” moiety. To exclude the possible transcriptional impact by degraders, qRT-PCR was used to examine the mRNA level of HDAC6 and related genes (data not shown). […] This is consistent with the hypothesis that the cellular knockdown of HDAC6 is due to direct protein degradation, not by transcriptional downregulation. […]

[1] = 1 h pre-treatment, then 100 nM degrader 6 h, MM1S
[2] = 12d dose response 0.3 nM to 10 μM, MM1S

## O=C(CCCCCCC(=O)N/N=C/c1ccc(OCCOCCOCCn2cc(CNc3cccc4c3C(=O)N(C3CCC(=O)NC3=O)C4=O)nn2)cc1)NO (centres unmarked) [Compound 1]
10 nM, 6 h, MM1S
  HDAC6 degradation by western blot: degraded much less HDAC6

## CCCCN(Cc1ccc(C(=O)NO)cc1)C(=O)Nc1ccc(OCCCCCn2cc(CNc3cccc4c3C(=O)N(C3CCC(=O)NC3=O)C4=O)nn2)cc1 (centres unmarked) [Compound 12d, 4-((1-butyl-3-(4-((5-(4-(((2-(2,6-dioxopiperidin-3-yl)-1,3-dioxoisoindolin-4-yl)amino)methyl)-1H-1,2,3-triazol-1-yl)pentyl)oxy)phenyl)ureido)methyl)-N-hydroxybenzamide]
100 nM for 6 h, washed with PBS, monitored within 48 h
  HDAC6 recovery after wash-out: not fully recovered
100 nM, MM1S
  time at which HDAC6 degradation started: around 1 h
  time of maximal HDAC6 degradation effect: 4 h
[1]
  HDAC6 level on co-treatment with pomalidomide or Next-A: recovered HDAC6 level
  degradation on co-treatment with NAE inhibitor MLN4924: abolishing the degradation of both HDAC6 and IKZFs
  degradation on co-treatment with proteasome inhibitor MG132 or Bortezomib: no degradation of HDAC6
[2]
  concentration at which hook effect was observed: ≥ 3 µM
  concentration of maximal effects on HDAC6: around 30 nM
  lowest concentration reducing HDAC6 protein content: 3 nM

## CCCCN(Cc1ccc(C(=O)NO)cc1)C(=O)Nc1ccc(OCCCCCn2cc(CNc3cccc4c3C(=O)N(C3CCC(=O)NC3=O)C4=O)nn2)cc1 (centres unmarked) [Compound 2]
time-course, MM1S
  time at which reduction of HDAC6 expression started: 30 min
  time of maximal HDAC6 degradation: around 4 h

## CCCCN(Cc1ccc(C(=O)NO)cc1)C(=O)Nc1ccc(OCCCCCn2cc(CNc3cccc4c3C(=O)N(C3CCC(=O)N(C)C3=O)C4=O)nn2)cc1 (centres unmarked) [Compound 15, 4-((1-butyl-3-(4-((5-(4-(((2-(1-methyl-2,6-dioxopiperidin-3-yl)-1,3-dioxoisoindolin-4-yl)amino)methyl)-1H-1,2,3-triazol-1-yl)pentyl)oxy)phenyl)ureido)methyl)-N-hydroxybenzamide]
MM1S
  HDAC6 degradation activity of negative controls by western blot: inactive

## CCCCN(Cc1ccc(C(=O)OC)cc1)C(=O)Nc1ccc(OCCCCCn2cc(CNc3cccc4c3C(=O)N(C3CCC(=O)NC3=O)C4=O)nn2)cc1 (centres unmarked) [Compound 13, Methyl 4-((1-butyl-3-(4-((5-(4-(((2-(2,6-dioxopiperidin-3-yl)-1,3-dioxoisoindolin-4-yl)amino)methyl)-1H-1,2,3-triazol-1-yl)pentyl)oxy)phenyl)ureido)methyl)benzoate]
MM1S
  HDAC6 degradation activity of negative controls by western blot: inactive; also recorded: limited HDAC6 degradation

Source: patent publication US11059815B2, “Synthesis of small molecule histone deacetylase 6 degraders, compounds formed thereby, and pharmaceutical compositions containing them” (Wisconsin Alumni Research Foundation, priority 2018, dated 2021)
